The text below walks through data of patent publication US20090118330A1, “Diurea derivatives” (priority 2004, published 2009).

Structures are written as SMILES. Structures can show the parent of a compound that is named as a salt. Where two headings read alike, the source gives them in different places. Some results are limits rather than exact numbers.

For orientation: IC50 means the concentration at which inhibition is half-maximal.

Holding throughout (assay type): cell-based
Experiment [1] concerns IL-2 production in human T-cells (CD4+). Nature of the experiment: Inhibition of PMA/Ionomycin stimulated IL-2 production in human T-cells. The following applies: T-cell. The method, then: The compounds to be evaluated were dissolved in DMSO and the dilution series of the compounds were prepared in DMSO. The series were further diluted in cell culture medium (RPMI 1640 with ultraglutamine, 10% foetal calf serum (FCS)) to obtain a final assay concentration of DMSO of 0.1% in 200 μl total volume. The compounds were plated (2 μl/well) on opaque white assay plates together with controls.
Peripheral blood mononuclear cells (PBMC) were isolated from human blood drawn from healthy volunteers, by density gradient separation over Ficoll-Paque. T-cells (CD4+) were obtained with positive selection using magnetic cell sorting (MACS). The cells were resuspended at 1×10^6 cells/ml in cell culture medium (RPMI 1640 with ultraglutamine, 10% FCS, 10 mM hepes, 1 mM sodium pyruvate and 0.1 mg/ml gentamicin).
The cells (1×10^5/well) were added to the assay plates containing the diluted compounds and pre-incubated for 30 min at 37° C. in a humidified atmosphere of 5% carbon dioxide. The cells were stimulated with 10 ng/ml phorbol myristate acetate (PMA) and 250 ng/ml ionomycin and the plates were incubated for 4 hours at 37° C. in a humidified atmosphere of 5% carbon dioxide. Approximately 100 μl of the supernatants were removed and transferred to a separate microtiter plate and the remaining cells were lysed (Nucleotide Releasing Reagent, ViaLight™, Cambrex). All the plates were kept at −20° C. pending analysis. Human interleukin-2 (IL-2) was analysed with a standard ELISA kit (OptEIA™, Pharmingen) according to the manufacturer's instructions. Viability was assessed by measuring adenosine triphosphate (ATP) content by adding luciferase (ATP monitoring reagent, ViaLight™, Cambrex) to the lysed cells and measuring luminescence, all according to the manufacturer's specifications.
The % effect of each concentration of compound was calculated compared to non-treated stimulated cells. Non-linear regression, a modified Hill-plot (y=(a−d)/(1+(x/c)b)+d) was used to calculate the concentration for y=50% (IC50).

Experiment [2] concerns human T-cells. Briefly: Induction of apoptosis in human T-cells. The following applies: Annexin V, PARP cleavage, DNA fragmentation methods. The method, then: The induction of apoptosis can be observed by measuring Annexin V-binding to cells (Van Engeland et al. 1998). Primary human CD4^+ T cells were isolated from peripheral blood from healthy volunteers as described above. Cells were cultured immediately after purification at a density of 2×10^6 cells/ml in RPMI 1640 medium supplemented with 10% FCS, Gentamycin (100 μg/ml), Hepes (10 mM) and Sodium Pyruvate (1 mM). Cells were stained with annexin V-FITC and propidium iodide by using the ApoAlert Annexin V-FITC Apoptosis Kit (Clontech) according to manufacturer's instructions. Flow cytometry analysis was performed using a FACScan (Becton Dickinson). […] Cell lysates were prepared by lysing 2×10^6 PBS-washed cells in 50 μl buffer containing 20 mM Tris-HCl, pH 7.7, 250 mM NaCl, 3 mM EDTA, 3 mM EGTA 0.5% NP-40 supplemented with 1 mM p-nitrophenyl phosphate (PNPP), 10 mM β-glycerophosphate, 100 μM Na-vanadate and 1 mM phenylmethansulfonyl fluoride (PMSF). The protein concentrations were determined by using Bio-Rads protein assay and thereafter equal amounts of protein was loaded onto precasted NuPAGE™ Tris-Bis gels (Novex). After electrophoresis, the proteins were transferred to nitrocellulose membrane and probed with a polyclonal rabbit antibody directed against PARP (Roche). […]

For experiment [3], the system named is IL-6 production in human peripheral blood mononuclear cells. Nature of the experiment: Inhibition of PMA/Ionomycin stimulated IL-6 production in human PBMC. The following applies: mean±S.D., n=3.
Experiment [4] relates to IFN-γ production in human peripheral blood mononuclear cells. Nature of the experiment: Inhibition of PMA/Ionomycin stimulated IFN-γ production in human PBMC. The following applies: mean±S.D., n=3.
Experiment [5] relates to TNF-α production in human peripheral blood mononuclear cells. Briefly: Inhibition of PMA/Ionomycin stimulated TNF-α production in human PBMC. The following applies: mean±S.D., n=3.
The mark [6] stands for this setting: mean, n = 2, read-out: IC50 IL-2.

Regarding `CCN(CC)CCN(CCNC(=O)Nc1cccc(C(F)(F)F)c1)C(=O)Nc1cccc(C(F)(F)F)c1.Cl` [Compound A, 1-(2-Diethylamino-ethyl)-3-(3-trifluoromethyl-phenyl)-1-{2-[3-(3-trifluoromethyl-phenyl)-ureido]-ethyl}-urea, hydrochloride], the IC50 in experiment [1] (setting [6]) was determined as 2000 nM; in experiment [1] (mean±S.D., n=30, read-out: IC50 of IL-2 production) it was 2000 ± 1000 nM; in experiment [3], 3000 ± 1000 nM; in experiment [4] it was 4000 ± 1000 nM; in experiment [5], 3000 ± 1000 nM. Also, in experiment [2], the “concentration at which significant apoptosis induction was observed” value is more than 4 µM. On to `CCN(CC)CCN(CCNC(=O)Nc1cccc(C(F)(F)F)c1)C(=O)Nc1ccc(C(F)(F)F)cc1` [Compound B, 1-(2-Diethylamino-ethyl)-3-(4-trifluoromethyl-phenyl)-1-{2-[3-(3-trifluoromethyl-phenyl)-ureido]-ethyl}-urea], for which the IC50 in experiment [1] (setting [6]) came to 2000 nM. The same measure, in the same setting: with `O=C(NCCN(CCN1CCCC1)C(=O)Nc1ccc(Cl)cc1)Nc1ccc(Cl)cc1` [Compound C, 3-(4-Chloro-phenyl)-1-{2-[3-(4-chloro-phenyl)-ureido]-ethyl}-1-(2-pyrrolidin-1-yl-ethyl)-urea] the figure was 2000 nM; with `O=C(NCCN(CCN1CCCCC1)C(=O)Nc1cccc(Cl)c1)Nc1cccc(C(F)(F)F)c1` [Compound D, 1-{2-[3-(3-Chloro-phenyl)-1-(2-piperidin-1-yl-ethyl)ureido]-ethyl}-3-(3-trifluoromethyl-phenyl)-urea], 2000 nM; with `CN(C)CCN(CCNC(=O)Nc1ccc(Br)cc1)C(=O)Nc1ccc(Br)cc1` [Compound E, 3-(4-Bromo-phenyl)-1-{2-[3-(4-bromo-phenyl)-ureido]-ethyl}-1-(2-dimethylamino-ethyl)-urea], 1000 nM.

`CCN(CC)CCN(CCNC(=O)Nc1ccccc1)C(=O)Nc1ccc(C(F)(F)F)cc1` [Compound F, 1-(2-Diethylamino-ethyl)-1-[2-(3-phenyl-ureido)-ethyl]-3-(4-trifluoromethyl-phenyl)-urea]: the half-inhibitory concentration (IC50) in experiment [1] (setting [6]) turned out to be 3000 nM.

With `O=C(NCCN(CCN1CCCCC1)C(=O)Nc1ccc(C(F)(F)F)cc1)Nc1cccc(C(F)(F)F)c1` [Compound G, 1-(2-Piperidin-1-yl-ethyl)-3-(4-trifluoromethyl-phenyl)-1-{2-[3-(3-trifluoromethyl-phenyl)-ureido]-ethyl}-urea], the IC50 in experiment [1] (setting [6]) amounted to 1000 nM.

Consider `O=C(NCCN(CCN1CCCC1)C(=O)Nc1ccc(C(F)(F)F)cc1)Nc1cccc(C(F)(F)F)c1` [Compound H, 1-{2-[1-(2-Pyrrolidin-1-yl-ethyl)-3-(4-trifluoromethylphenyl)-ureido]-ethyl}-3-(3-trifluoromethyl-phenyl)-urea], for which the IC50 in experiment [1] (setting [6]) was found to be 1000 nM.

On to `O=C(NCCN(CCN1CCCC1)C(=O)Nc1ccc(C(F)(F)F)cc1)Nc1ccc2ncccc2c1` [Compound I, 1-{2-[1-(2-Pyrrolidin-1-yl-ethyl)-3-(4-trifluoromethylphenyl)-ureido]-ethyl}-3-quinolin-6-yl-urea], for which the 50% inhibitory concentration (IC50) in experiment [1] (setting [6]) is 5000 nM. For the molecule `O=C(NCCN(CCN1CCCC1)C(=O)Nc1ccc(C(F)(F)F)cc1)Nc1ccc(C(F)(F)F)cc1` [Compound J, 1-(2-Pyrrolidin-1-yl-ethyl)-3-(4-trifluoromethyl-phenyl)-1-{2-[3-(4-trifluoromethyl-phenyl)-ureido]-ethyl}-urea], in experiment [1] (setting [6]), the IC50 was 3000 nM. For the molecule `O=C(NCCN(CCN1CCCCC1)C(=O)Nc1cccc(C(F)(F)F)c1)Nc1cccc(C(F)(F)F)c1` [Compound K, 1-(2-Piperidin-1-yl-ethyl)-3-(3-trifluoromethyl-phenyl)-1-{2-[3-(3-trifluoromethyl-phenyl)-ureido]-ethyl}-urea], in experiment [1] (setting [6]), the IC50 was found to be 2000 nM. On the same count and under the same terms, the value for `CN(C)CCN(CCNC(=O)Nc1ccc(Cl)cc1)C(=O)Nc1ccc(C(F)(F)F)cc1` [Compound L, 1-{2-[3-(4-Chloro-phenyl)-ureido]-ethyl}-1-(2-dimethylamino-ethyl)-3-(4-trifluoromethyl-phenyl)-urea, hydrochloride] was 2000 nM; that for `CCN(CC)CCN(CCNC(=O)Nc1cc(Cl)nc(Cl)c1)C(=O)Nc1ccc(Br)cc1` [Compound M, 1-{2-[3-(4-Bromo-phenyl)-1-(2-diethylamino-ethyl)ureido]-ethyl}-3-(2,6-dichloro-pyridin-4-yl)-urea] was 2000 nM.
